# Assay results reported in ChEMBL document CHEMBL1201862, “PubChem BioAssay data set” (2004).
#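 Test compounds were applied to cells in 96-well plates for 48 hours at 5 doses. GI50 marks 50% less growth.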 Activity calls are given as the source filed them. No stated cut-off is given here; in the data, active = GI50 up to about 1.1 µM and inactive = higher.
# Experiments:
# Test in all cases: NCI anticancer screen, dose series, 48 h
# 786-0 = test system: 786-0
# A498 = test system: A498
# A549 = test system: A549
# ACHN = test system: ACHN
# CAKI-1 = test system: CAKI-1
# CCRF-CEM = test system: CCRF-CEM
# COLO 205 = test system: COLO 205
# DLD-1 = test system: DLD-1
# DMS-114 = test system: DMS-114
# DMS-273 = test system: DMS-273
# EKVX = test system: EKVX
# HCC 2998 = test system: HCC 2998
# HL-60 = test system: HL-60
# HOP-18 = test system: HOP-18
# HOP-62 = test system: HOP-62
# HOP-92 = test system: HOP-92
# HT-29 = test system: HT-29
# IGROV-1 = test system: IGROV-1
# K562 = test system: K562
# KM-20L2 = test system: KM-20L2
# KM12 = test system: KM12
# LOX IMVI = test system: LOX IMVI
# LXFL 529 = test system: LXFL 529
# M19-MEL = test system: M19-MEL
# MOLT-4 = test system: MOLT-4
# Malme-3M = test system: Malme-3M
# NCI-H226 = test system: NCI-H226
# NCI-H23 = test system: NCI-H23
# NCI-H460 = test system: NCI-H460
# NCI-H522 = test system: NCI-H522
# OVCAR-4 = test system: OVCAR-4
# OVCAR-5 = test system: OVCAR-5
# OVCAR-8 = test system: OVCAR-8
# RXF 393 = test system: RXF 393
# SF-268 = test system: SF-268
# SF-295 = test system: SF-295
# SF-539 = test system: SF-539
# SK-MEL-28 = test system: SK-MEL-28
# SK-MEL-2 = test system: SK-MEL-2
# SK-MEL-5 = test system: SK-MEL-5
# SK-OV-3 = test system: SK-OV-3
# SN12C = test system: SN12C
# SNB-19 = test system: SNB-19
# SNB-78 = test system: SNB-78
# SR = test system: SR
# SW-620 = test system: SW-620
# TK-10 = test system: TK-10
# U-251 = test system: U-251
# UACC-257 = test system: UACC-257
# UACC-62 = test system: UACC-62
# UO-31 = test system: UO-31
# XF498 = test system: XF498
# HCT-116 = test system: HCT-116
# HCT-15 = test system: HCT-15
# M14 = test system: M14
# OVCAR-3 = test system: OVCAR-3
# RPMI-8226 = test system: RPMI-8226
# SNB-75 = test system: SNB-75
smiles,measurement,setting,value
COc1ccc(CC2=NCCc3cc(OC)c(OC)cc32)cc1Br,GI50,786-0,5.78 µM (inactive)
same,GI50,A498,13.1 µM (inactive)
same,GI50,A549,21.6 µM (inactive)
same,GI50,ACHN,12.9 µM (inactive)
same,GI50,CAKI-1,12.1 µM (inactive)
same,GI50,CCRF-CEM,12.4 µM (inactive)
same,GI50,COLO 205,14.6 µM (inactive)
same,GI50,DLD-1,19.1 µM (inactive)
same,GI50,DMS-114,10.2 µM (inactive)
same,GI50,DMS-273,12.7 µM (inactive)
same,GI50,EKVX,40.6 µM (inactive)
same,GI50,HCC 2998,14.1 µM (inactive)
same,GI50,HL-60,3.1 µM (inactive)
same,GI50,HOP-18,> 100 µM (inactive)
same,GI50,HOP-62,4.36 µM (inactive)
same,GI50,HOP-92,0.644 µM (active)
same,GI50,HT-29,3.18 µM (inactive)
same,GI50,IGROV-1,> 10 µM (inactive)
same,GI50,K562,3.66 µM (inactive)
same,GI50,KM-20L2,4.11 µM (inactive)
same,GI50,KM12,16.1 µM (inactive)
same,GI50,LOX IMVI,5.09 µM (inactive)
same,GI50,LXFL 529,7.36 µM (inactive)
same,GI50,M19-MEL,27.5 µM (inactive)
same,GI50,MOLT-4,6.18 µM (inactive)
same,GI50,Malme-3M,22.8 µM (inactive)
same,GI50,NCI-H226,4.38 µM (inactive)
same,GI50,NCI-H23,8.69 µM (inactive)
same,GI50,NCI-H460,6.19 µM (inactive)
same,GI50,NCI-H522,12 µM (inactive)
same,GI50,OVCAR-4,15.2 µM (inactive)
same,GI50,OVCAR-5,1.99 µM (inactive)
same,GI50,OVCAR-8,20.7 µM (inactive)
same,GI50,RXF 393,21.1 µM (inactive)
same,GI50,SF-268,41.7 µM (inactive)
same,GI50,SF-295,3.48 µM (inactive)
same,GI50,SF-539,24.7 µM (inactive)
same,GI50,SK-MEL-28,19.8 µM (inactive)
same,GI50,SK-MEL-2,33.4 µM (inactive)
same,GI50,SK-MEL-5,12.5 µM (inactive)
same,GI50,SK-OV-3,16.9 µM (inactive)
same,GI50,SN12C,15.8 µM (inactive)
same,GI50,SNB-19,12.7 µM (inactive)
same,GI50,SNB-78,58.1 µM (inactive)
same,GI50,SR,11.9 µM (inactive)
same,GI50,SW-620,7.52 µM (inactive)
same,GI50,TK-10,50 µM (inactive)
same,GI50,U-251,18.1 µM (inactive)
same,GI50,UACC-257,21.3 µM (inactive)
same,GI50,UACC-62,6.67 µM (inactive)
same,GI50,UO-31,16.8 µM (inactive)
same,GI50,XF498,22.8 µM (inactive)
O=c1c2cccc3cccc(c4n1CCN=4)c32,GI50,786-0,> 100 µM (inactive)
same,GI50,A498,40.3 µM (inactive)
same,GI50,A549,> 100 µM (inactive)
same,GI50,ACHN,56 µM (inactive)
same,GI50,CAKI-1,63.4 µM (inactive)
same,GI50,CCRF-CEM,80.2 µM (inactive)
same,GI50,COLO 205,> 100 µM (inactive)
same,GI50,DLD-1,52.5 µM (inactive)
same,GI50,DMS-114,> 100 µM (inactive)
same,GI50,DMS-273,97.7 µM (inactive)
same,GI50,EKVX,> 100 µM (inactive)
same,GI50,HCT-116,57.8 µM (inactive)
same,GI50,HCT-15,85.7 µM
same,GI50,HL-60,56.8 µM (inactive)
same,GI50,HOP-18,> 100 µM (inactive)
same,GI50,HOP-62,93.3 µM (inactive)
same,GI50,HOP-92,> 100 µM (inactive)
same,GI50,HT-29,> 100 µM (inactive)
same,GI50,IGROV-1,82.6 µM (inactive)
same,GI50,K562,> 100 µM (inactive)
same,GI50,KM-20L2,> 100 µM (inactive)
same,GI50,KM12,76.9 µM (inactive)
same,GI50,LOX IMVI,32 µM (inactive)
same,GI50,LXFL 529,> 100 µM (inactive)
same,GI50,M14,73.1 µM (inactive)
same,GI50,M19-MEL,> 100 µM (inactive)
same,GI50,MOLT-4,30.3 µM (inactive)
same,GI50,Malme-3M,> 100 µM (inactive)
same,GI50,NCI-H226,56.8 µM (inactive)
same,GI50,NCI-H23,> 100 µM (inactive)
same,GI50,NCI-H460,61.1 µM (inactive)
same,GI50,NCI-H522,84.3 µM (inactive)
same,GI50,OVCAR-3,> 100 µM (inactive)
same,GI50,OVCAR-4,40.8 µM (inactive)
same,GI50,OVCAR-5,> 100 µM (inactive)
same,GI50,OVCAR-8,> 100 µM (inactive)
same,GI50,RPMI-8226,> 100 µM (inactive)
same,GI50,RXF 393,42.4 µM (inactive)
same,GI50,SF-268,> 100 µM (inactive)
same,GI50,SF-295,> 100 µM (inactive)
same,GI50,SF-539,> 100 µM (inactive)
same,GI50,SK-MEL-28,> 100 µM (inactive)
same,GI50,SK-MEL-2,63.7 µM (inactive)
same,GI50,SK-MEL-5,> 100 µM (inactive)
same,GI50,SK-OV-3,41 µM (inactive)
same,GI50,SN12C,> 100 µM (inactive)
same,GI50,SNB-75,76.9 µM (inactive)
same,GI50,SNB-78,> 100 µM (inactive)
same,GI50,SR,25.2 µM (inactive)
same,GI50,SW-620,> 100 µM (inactive)
same,GI50,TK-10,17.5 µM (inactive)
same,GI50,U-251,> 100 µM (inactive)
same,GI50,UACC-257,> 100 µM (inactive)
same,GI50,UACC-62,84.5 µM (inactive)
same,GI50,UO-31,41 µM (inactive)
same,GI50,XF498,> 100 µM (inactive)
CC(C)(Oc1ccc2c(=O)cc(-c3ccccc3)oc2c1)C(=O)Nc1c(Cl)cccc1Cl,GI50,786-0,97.1 µM (inactive)
same,GI50,A498,> 100 µM (inactive)
same,GI50,A549,67.1 µM (inactive)
same,GI50,CAKI-1,> 100 µM (inactive)
same,GI50,CCRF-CEM,57.7 µM (inactive)
same,GI50,DMS-114,19.7 µM (inactive)
same,GI50,DMS-273,64.4 µM (inactive)
same,GI50,EKVX,> 100 µM (inactive)
same,GI50,HCT-116,59.2 µM (inactive)
same,GI50,HCT-15,76.7 µM
same,GI50,HL-60,44.3 µM (inactive)
same,GI50,HOP-18,> 100 µM (inactive)
same,GI50,HOP-62,> 100 µM (inactive)
same,GI50,HOP-92,20.1 µM (inactive)
same,GI50,HT-29,> 100 µM (inactive)
same,GI50,IGROV-1,> 100 µM (inactive)
same,GI50,K562,12.1 µM (inactive)
same,GI50,KM-20L2,> 100 µM (inactive)
same,GI50,KM12,79.1 µM (inactive)
same,GI50,LOX IMVI,> 100 µM (inactive)
same,GI50,LXFL 529,81.7 µM (inactive)
same,GI50,M14,> 100 µM (inactive)
same,GI50,M19-MEL,68.2 µM (inactive)
same,GI50,MOLT-4,76.4 µM (inactive)
same,GI50,Malme-3M,> 100 µM (inactive)
same,GI50,NCI-H23,> 100 µM (inactive)
same,GI50,NCI-H460,> 100 µM (inactive)
same,GI50,NCI-H522,38 µM (inactive)
same,GI50,OVCAR-3,> 100 µM (inactive)
same,GI50,OVCAR-5,> 100 µM (inactive)
same,GI50,OVCAR-8,29.4 µM (inactive)
same,GI50,RPMI-8226,47.8 µM (inactive)
same,GI50,RXF 393,< 0.01 µM (active)
same,GI50,SF-268,> 100 µM (inactive)
same,GI50,SF-295,> 100 µM (inactive)
same,GI50,SF-539,> 100 µM (inactive)
same,GI50,SK-MEL-28,> 100 µM (inactive)
same,GI50,SK-MEL-2,> 100 µM (inactive)
same,GI50,SK-MEL-5,26.5 µM (inactive)
same,GI50,SK-OV-3,> 100 µM (inactive)
same,GI50,SNB-19,> 100 µM (inactive)
same,GI50,SNB-78,> 100 µM (inactive)
same,GI50,SR,> 100 µM (inactive)
same,GI50,SW-620,> 100 µM (inactive)
same,GI50,TK-10,> 100 µM (inactive)
same,GI50,U-251,> 100 µM (inactive)
same,GI50,UACC-257,> 100 µM (inactive)
same,GI50,UACC-62,> 100 µM (inactive)
same,GI50,UO-31,9.66 µM (inactive)
same,GI50,XF498,14.3 µM (inactive)
